Laboratory results from US8652505B2, “Coating for medical implants” (Southwest Research Institute, priority 2010, dated 2014).

Test system: methicillin resistant Staphylococcus aureus (MRSA) bacteria (strain: ATCC#33591)
Assay: Bacteria inhibition test on Mueller-Hinton agar (zone of inhibition / MIC)
Assay type: cell-based
Method: Bacteria inhibition tests were performed on Agar according to the standard method by using methicillin resistant Staphylococcus aureus (MRSA) bacteria (strain: ATCC#33591) in order to determine if the released vancomycin was active and unaffected by the coating and polymerization procedures described herein. The bacteria suspensions were cultured onto separate Mueller-Hinton agar plates at a concentration of 1−2×10^8 CFU/mL (CFU=colony forming unites) and incubated at 37° C. Released vancomycin, free vancomycin, and a standard vancomycin disk (loaded with 30 μg of vancomycin) were compared. After 24 hrs, the zone of inhibition was measured. To measure the sensitivity or the minimum inhibition concentration (MIC), different concentrations of vancomycin were loaded onto cellulose discs (40, 20, 10, 5, 2.5, and 1.25 μg per disc, N=3) and the zone of inhibition was measured.

Row | SMILES | activity of released drug in bacteria inhibition test (zone of inhibition after 24 hrs, 37° C., compared with free vancomycin and standard 30 μg disk) | MIC (vancomycin loaded on cellulose discs, against S. Aureus, FIG. 10)
1 | CN[C@H](CC(C)C)C(=O)N[C@H]1C(=O)N[C@@H](CC(N)=O)C(=O)N[C@H]2C(=O)N[C@H]3C(=O)N[C@H](C(=O)N[C@H](C(=O)O)c4cc(O)cc(O)c4-c4cc3ccc4O)[C@H](O)c3ccc(c(Cl)c3)Oc3cc2cc(c3O[C@@H]2O[C@H](CO)[C@@H](O)[C@H](O)[C@H]2O[C@H]2C[C@](C)(N)[C@H](O)[C@H](C)O2)Oc2ccc(cc2Cl)[C@H]1O [released drug, vancomycin] | same activity as the free drug and standard drug | –
2 | CN[C@H](CC(C)C)C(=O)N[C@H]1C(=O)N[C@@H](CC(N)=O)C(=O)N[C@H]2C(=O)N[C@H]3C(=O)N[C@H](C(=O)N[C@H](C(=O)O)c4cc(O)cc(O)c4-c4cc3ccc4O)[C@H](O)c3ccc(c(Cl)c3)Oc3cc2cc(c3O[C@@H]2O[C@H](CO)[C@@H](O)[C@H](O)[C@H]2O[C@H]2C[C@](C)(N)[C@H](O)[C@H](C)O2)Oc2ccc(cc2Cl)[C@H]1O [vancomycin] | – | 0.5 to 1 µg
